What all share (format): biochemical
Test [1] concerns the target human JAK1 (a.a. 837-1142). Kind of test: In vitro JAK kinase assay (HTRF, phosphorylation of a biotinylated peptide), JAK1. Conditions: ratio of JAK2 IC50 to JAK1 IC50, measured at 1 mM ATP. The procedure, abridged:
(§1)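 N-terminal His-tagged catalytic domains, baculovirus-expressed in insect cells, phosphorylated a biotinylated peptide for 1 hr at room temperature. EDTA stop was followed by SA-APC and Eu-Py20 antibody for 40 minutes, with phosphopeptide read by HTRF.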

Test [2] concerns the target human JAK1 (a.a. 837-1142) (Homo sapiens, UniProt P23458). The description is as above. Conditions: measured at 1 mM ATP. The procedure, abridged: as §1
For test [3], the target named is Jak2 (a.a. 828-1132) (Homo sapiens (Human), UniProt O60674). Kind of test: In vitro JAK kinase assay (HTRF, phosphorylation of a biotinylated peptide), JAK2. The settings on record: measured at 1 mM ATP. The procedure, abridged:
as §1

One may read the IC50 as the concentration that gives 50% inhibition. A higher IC50 goes with weaker potency in that assay.

Chain of Jak2 (a.a. 828-1132) (O60674 828-1132): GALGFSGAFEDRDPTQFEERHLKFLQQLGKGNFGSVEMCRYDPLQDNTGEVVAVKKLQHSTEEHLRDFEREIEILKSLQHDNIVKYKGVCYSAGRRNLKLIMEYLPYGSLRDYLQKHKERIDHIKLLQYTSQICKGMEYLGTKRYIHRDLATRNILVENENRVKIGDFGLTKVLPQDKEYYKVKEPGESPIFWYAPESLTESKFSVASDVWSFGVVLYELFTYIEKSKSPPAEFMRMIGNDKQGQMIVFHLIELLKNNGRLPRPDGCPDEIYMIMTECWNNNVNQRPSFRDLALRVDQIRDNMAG

For the compound `N#CCC1(n2cc(-c3ncnc4[nH]ccc34)cn2)CN(C2CCN(C(=O)c3cccc4ccccc34)CC2)C1` [Example 87, {1-[1-(1-naphthoyl)piperidin-4-yl]-3-[4-(7H-pyrrolo[2,3-d]pyrimidin-4-yl)-1H-pyrazol-1-yl]azetidin-3-yl}acetonitrile], the “IC50 Ratio JAK2/JAK1” value in test [1] amounted to 0.3. Further, the IC50 in test [2] was not above 5 nM; in test [3], not above 10 nM.
`N#CCC1(n2cc(-c3ncnc4[nH]ccc34)cn2)CN(C2CCN(C(=O)c3cnc4ccccc4c3)CC2)C1` [Example 88, {3-[4-(7H-pyrrolo[2,3-d]pyrimidin-4-yl)-1H-pyrazol-1-yl]-1-[1-(quinolin-3-ylcarbonyl)piperidin-4-yl]azetidin-3-yl}acetonitrile]: in test [1], the “IC50 Ratio JAK2/JAK1” value came out at 0.9. Also, the results for the IC50 in test [2] and in test [3] were 5 to 20 nM and not above 10 nM, respectively.
On to `N#CCC1(n2cc(-c3ncnc4[nH]ccc34)cn2)CN(C2CCN(C(=O)c3ccc4ncccc4c3)CC2)C1` [Example 89, {3-[4-(7H-pyrrolo[2,3-d]pyrimidin-4-yl)-1H-pyrazol-1-yl]-1-[1-(quinolin-6-ylcarbonyl)piperidin-4-yl]azetidin-3-yl}acetonitrile], for which the “IC50 Ratio JAK2/JAK1” value in test [1] is on record as 2.6. Moreover, the IC50 in test [2] was not above 5 nM; in test [3] it was not above 10 nM.
The corresponding values for `N#CCC1(n2cc(-c3ncnc4[nH]ccc34)cn2)CN(C2CCN(C(=O)c3cc4ccccc4s3)CC2)C1` [Example 90, {1-[1-(1-benzothien-2-ylcarbonyl)piperidin-4-yl]-3-[4-(7H-pyrrolo[2,3-d]pyrimidin-4-yl)-1H-pyrazol-1-yl]azetidin-3-yl}acetonitrile] are 1.5, not above 5 nM and not above 10 nM.
Take `N#CCC1(n2cc(-c3ncnc4[nH]ccc34)cn2)CN(C2CCN(C(=O)c3sc4cc(F)ccc4c3Cl)CC2)C1` [Example 91, {1-{1-[(3-chloro-6-fluoro-1-benzothien-2-yl)carbonyl]piperidin-4-yl}-3-[4-(7H-pyrrolo[2,3-d]pyrimidin-4-yl)-1H-pyrazol-1-yl]azetidin-3-yl}acetonitrile]: in test [1], the “IC50 Ratio JAK2/JAK1” value amounted to 1.7. Also, the figures for the IC50 in test [2] and in test [3] were not above 5 nM and not above 10 nM, respectively.
For `N#CCC1(n2cc(-c3ncnc4[nH]ccc34)cn2)CN(C2CCN(C(=O)c3sc4cccc(F)c4c3Cl)CC2)C1` [Example 92, {1-{1-[(3-chloro-4-fluoro-1-benzothien-2-yl)carbonyl]piperidin-4-yl}-3-[4-(7H-pyrrolo[2,3-d]pyrimidin-4-yl)-1H-pyrazol-1-yl]azetidin-3-yl}acetonitrile], the “IC50 Ratio JAK2/JAK1” value in test [1] turned out to be 2.8. The IC50 in test [2] is not above 5 nM; in test [3] it was not above 10 nM.
Consider `N#CCC1(n2cc(-c3ncnc4[nH]ccc34)cn2)CN(C2CCN(C(=O)c3cc4c(C(F)(F)F)cccc4s3)CC2)C1` [Example 93, [3-[4-(7H-pyrrolo[2,3-d]pyrimidin-4-yl)-1H-pyrazol-1-yl]-1-(1-{[4-(trifluoromethyl)-1-benzothien-2-yl]carbonyl}piperidin-4-yl)azetidin-3-yl]acetonitrile], for which the “IC50 Ratio JAK2/JAK1” value in test [1] turned out to be 1.5. Also, the values for the IC50 in test [2] and in test [3] were not above 5 nM and not above 10 nM, respectively.
The corresponding values for `N#CCC1(n2cc(-c3ncnc4[nH]ccc34)cn2)CN(C2CCN(C(=O)c3cc4ccc(C(F)(F)F)cc4s3)CC2)C1` [Example 94, [3-[4-(7H-pyrrolo[2,3-d]pyrimidin-4-yl)-1H-pyrazol-1-yl]-1-(1-{[6-(trifluoromethyl)-1-benzothien-2-yl]carbonyl}piperidin-4-yl)azetidin-3-yl]acetonitrile] are 1.0, 5 to 20 nM and 10 to 50 nM.
On to `N#CCC1(n2cc(-c3ncnc4[nH]ccc34)cn2)CN(C2CCN(C(=O)c3cc4cccc(C(F)(F)F)c4s3)CC2)C1` [Example 95, [3-[4-(7H-pyrrolo[2,3-d]pyrimidin-4-yl)-1H-pyrazol-1-yl]-1-(1-{[7-(trifluoromethyl)-1-benzothien-2-yl]carbonyl}piperidin-4-yl)azetidin-3-yl]acetonitrile], for which, in test [1], the “IC50 Ratio JAK2/JAK1” value is on record as 2.7. Besides, the values for the IC50 in test [2] and in test [3] were not above 5 nM and not above 10 nM, respectively.
As to `N#CCC1(n2cc(-c3ncnc4[nH]ccc34)cn2)CN(C2CCN(C(=O)c3csc4ccccc34)CC2)C1` [Example 96, {1-[1-(1-benzothien-3-ylcarbonyl)piperidin-4-yl]-3-[4-(7H-pyrrolo[2,3-d]pyrimidin-4-yl)-1H-pyrazol-1-yl]azetidin-3-yl}acetonitrile], the “IC50 Ratio JAK2/JAK1” value in test [1] is given as 0.5. For the same compound, the IC50 in test [2] is not above 5 nM; in test [3], not above 10 nM.
As for `N#CCC1(n2cc(-c3ncnc4[nH]ccc34)cn2)CN(C2CCN(C(=O)C3CCc4ccccc4C3)CC2)C1` (stereo not drawn) [Example 97, {3-[4-(7H-pyrrolo[2,3-d]pyrimidin-4-yl)-1H-pyrazol-1-yl]-1-[1-(1,2,3,4-tetrahydronaphthalen-2-ylcarbonyl)piperidin-4-yl]azetidin-3-yl}acetonitrile], in test [1], the “IC50 Ratio JAK2/JAK1” value turned out to be 2.2. The figures for the 50% inhibitory concentration (IC50) in test [2] and in test [3] were 5 to 20 nM and 10 to 50 nM, respectively.
Taken in the same sequence, the figures for `N#CCC1(n2cc(-c3ncnc4[nH]ccc34)cn2)CN(C2CCN(C(=O)C3CCC(C(F)(F)F)CC3)CC2)C1` (stereo not drawn) [Example 98, {3-[4-(7H-pyrrolo[2,3-d]pyrimidin-4-yl)-1H-pyrazol-1-yl]-1-(1-{[4-(trifluoromethyl)cyclohexyl]carbonyl}piperidin-4-yl)azetidin-3-yl]acetonitrile] were 3.7, 5 to 20 nM and 50 to 100 nM.
The corresponding values for `N#CCC1(n2cc(-c3ncnc4[nH]ccc34)cn2)CN(C2CCN(C(=O)C3CCC(F)(F)CC3)CC2)C1` [Example 100, {1-{1-[(4,4-difluorocyclohexyl)carbonyl]piperidin-4-yl}-3-[4-(7H-pyrrolo[2,3-d]pyrimidin-4-yl)-1H-pyrazol-1-yl]azetidin-3-yl}acetonitrile] are 6.6, 5 to 20 nM and 50 to 100 nM.
Consider `N#CCC1(n2cc(-c3ncnc4[nH]ccc34)cn2)CN(C2CCN(C(=O)C3CCCC3)CC2)C1` [Example 101, {1-[1-(cyclopentylcarbonyl)piperidin-4-yl]-3-[4-(7H-pyrrolo[2,3-d]pyrimidin-4-yl)-1H-pyrazol-1-yl]azetidin-3-yl}acetonitrile], for which the “IC50 Ratio JAK2/JAK1” value in test [1] stood at 8.3. Also, the figures for the IC50 in test [2] and in test [3] were 5 to 20 nM and more than 100 nM, respectively.
For `N#CCC1(n2cc(-c3ncnc4[nH]ccc34)cn2)CN(C2CCN(C(=O)C3CCC(c4ccc(Cl)cc4)CC3)CC2)C1` (stereo not drawn) [Example 105, {1-(1-{[4-(4-chlorophenyl)cyclohexyl]carbonyl}piperidin-4-yl)-3-[4-(7H-pyrrolo[2,3-d]pyrimidin-4-yl)-1H-pyrazol-1-yl]azetidin-3-yl}acetonitrile], the “IC50 Ratio JAK2/JAK1” value in test [1] worked out at 7.2. For the same compound, the IC50 in test [2] is 5 to 20 nM; in test [3] it was more than 100 nM.
Regarding `N#CCC1(n2cc(-c3ncnc4[nH]ccc34)cn2)CN(C2CCN(C(=O)Cc3ccccc3)CC2)C1` [Example 109, {1-[1-(phenylacetyl)piperidin-4-yl]-3-[4-(7H-pyrrolo[2,3-d]pyrimidin-4-yl)-1H-pyrazol-1-yl]azetidin-3-yl}acetonitrile], the “IC50 Ratio JAK2/JAK1” value in test [1] is recorded as 1.1. Besides, the figures for the IC50 in test [2] and in test [3] were 20 to 30 nM and 10 to 50 nM, respectively.
Regarding `N#CCC1(n2cc(-c3ncnc4[nH]ccc34)cn2)CN(C2CCN(C(=O)C3(c4ccccc4)CC3)CC2)C1` [Example 110, {1-{1-[(1-phenylcyclopropyl)carbonyl]piperidin-4-yl}-3-[4-(7H-pyrrolo[2,3-d]pyrimidin-4-yl)-1H-pyrazol-1-yl]azetidin-3-yl}acetonitrile], in test [1], the “IC50 Ratio JAK2/JAK1” value is 1.6. For the same compound, the IC50 in test [2] was in the range of 5 to 20 nM; in test [3], 10 to 50 nM.
On to `N#CCC1(n2cc(-c3ncnc4[nH]ccc34)cn2)CN(C2CCN(C(=O)C3(c4ccc(Cl)cc4)CC3)CC2)C1` [Example 111, {1-(1-{[1-(4-chlorophenyl)cyclopropyl]carbonyl}piperidin-4-yl)-3-[4-(7H-pyrrolo[2,3-d]pyrimidin-4-yl)-1H-pyrazol-1-yl]azetidin-3-yl}acetonitrile], for which the “IC50 Ratio JAK2/JAK1” value in test [1] came out at 2.6. Further, the IC50 was 5 to 20 nM in test [2] and 10 to 50 nM in test [3].
As for `N#CCC1(n2cc(-c3ncnc4[nH]ccc34)cn2)CN(C2CCN(C(=O)Cc3c(Cl)cccc3Cl)CC2)C1` [Example 112, {1-{1-[(2,6-dichlorophenyl)acetyl]piperidin-4-yl}-3-[4-(7H-pyrrolo[2,3-d]pyrimidin-4-yl)-1H-pyrazol-1-yl]azetidin-3-yl}acetonitrile], in test [1], the “IC50 Ratio JAK2/JAK1” value stood at 8.2. In addition, the IC50 in test [2] lay in the range of 5 to 20 nM; in test [3] it was 50 to 100 nM.
Taken in the same sequence, the figures for `Cc1cc(C)c(CC(=O)N2CCC(N3CC(CC#N)(n4cc(-c5ncnc6[nH]ccc56)cn4)C3)CC2)c(C)c1` [Example 113, {1-[1-(mesitylacetyl)piperidin-4-yl]-3-[4-(7H-pyrrolo[2,3-d]pyrimidin-4-yl)-1H-pyrazol-1-yl]azetidin-3-yl}acetonitrile] were 4.2, 20 to 30 nM and 50 to 100 nM.
For the compound `N#CCC1(n2cc(-c3ncnc4[nH]ccc34)cn2)CN(C2CCN(C(=O)c3ccc(-c4ccccc4)cc3)CC2)C1` [Example 114, {1-[1-(biphenyl-4-ylcarbonyl)piperidin-4-yl]-3-[4-(7H-pyrrolo[2,3-d]pyrimidin-4-yl)-1H-pyrazol-1-yl]azetidin-3-yl}acetonitrile], in test [1], the “IC50 Ratio JAK2/JAK1” value turned out to be 1.5. Also, the IC50 in test [2] lay within 5 to 20 nM; in test [3] it was 10 to 50 nM.

The values are drawn from patent US9999619B2, “Piperidin-4-yl azetidine derivatives as JAK1 inhibitors” (Incyte Corporation, priority 2010, dated 2018).
